# In patent US10357577B2, “Bacterial nitroreductase enzymes and methods relating thereto” (AUCKLAND UNISERVICES LIMITED, priority 2010, dated 2019):
# “And” between values parts separate entries of the source, which are not always exact repeats. Equal values may be shown once. “Also recorded” adds a separate entry of the source.
# Columns and labels:
# Assay type in all cases: cell-based, human
# [1] = system: nitroreductase NfsA-expressing HCT116 'activator' cells; experiment: MCL (multicellular layer) bystander experiment, NfsA-dependent activation; settings: for bystander property (in words): MCL of NTR-expressing and parental HCT116 cells; for estimated bystander effect efficiency (BEE) / calculated bystander effect efficiency (BEE): hyperoxic (95% O2) MCLs; for estimated bystander effect efficiency (BEE): at concentrations achievable in α-MEM+10% FBS, activator fraction differs per experiment; for calculated bystander effect efficiency (BEE): HCT116-WT targets mixed with NfsA activators (activator fraction differs per experiment)
# Experimental: Displacement of the Target cell survival curve to the left (T to Tc) is indicative of the presence of a cytotoxic metabolite(s) able to diffusible out of the sensitive activator (A) cell population. The prodrug concentrations for 10% survival (C10) of target cells (wild-type cells) grown without activators (T), targets in co-culture (TC) and activators (nfsA-expressing cells) in co-culture (AC) were determined by interpolation. BEE-Bystander effect efficiency calculates the drugs bystander effect: ((Log C10T−Log C10TC)/(Log C10T−Log C10AC)).
# The prodrug concentrations for 10% survival (C10) of target cells (wild-type cells) grown without activators (T), and targets in co-culture (TC) and activators (NTR-expressing cells) in co-culture (AC) can be determined. The bystander effect of a test prodrug is measured by the bystander effect efficiency which can be calculated using the algorithm ((Log C10T−Log C10TC)/(Log C10T−Log C10AC)).
# Millicell-CM membrane inserts (Millipore) were coated in calf-skin collagen type III (Sigma-Aldrich) to facilitate cell attachment. […] After exposure, inserts were disaggregated (0.07% trypsin, 10 min, 37° C., followed by 100 μg/ml DNAase I (Sigma-Aldrich). Cells were counted, resuspended and plated in P60 dishes to determine clonogenic survival. To discriminate clonogenic activator (NTR+) from target (NTR−) colonies cells were plated in non-selective medium (total cells) and medium containing 1 μM puromycin (activator cells). Colonies were grown in a 37° C. 5% CO2 incubator for 10 days before staining with methylene blue (2 g/liter in 50% v/v aqueous ethanol). Colonies containing >50 cells were counted as clonogenic survivors. Surviving fractions for each population was calculated as the plating efficiency for drug-treated MCLs/untreated controls. The drug concentrations for 10% survival (C10) of target cells grown without activators (T), targets in co-culture (Tc) and activators in co-culture (Ac) was determined by interpolation.
# [2] = system: HCT116 cells expressing E. coli NfsA; settings: low cell density proliferation assay
# Experimental: (§1) FIGS. 10 (B) and 10 (C) illustrates the results of evaluation of 2-nitroimidazole clinical imaging candidates with E. coli and non-E. coli NTRs. Stably-expressing cells were treated with varying concentration of 2-nitroimidazole prodrugs diluted in αMEM+5% FCS+P/S. Cells were exposed to prodrug for 18 hrs, washed and left to regrow for 5 days. IC50 was determined as the concentration of prodrug required to inhibit cell growth by 50% of untreated controls. IC50 values are mean for ≥2 independent experiments. WT:NTR ratio-ratio of IC50 means from WT cells versus NTR-expressing cell lines.
# (§2) FIG. 21 illustrates antiproliferative activity (IC50 value) of prodrug candidates with E. coli and non-E. coli nitroreductases. Stably-expressing cells were treated with varying concentration of prodrug diluted in αMEM+5% FCS+P/S. Cells were exposed to prodrug for 18 hrs, washed and left to regrow for 5 days. IC50 was determined as the concentration of prodrug required to inhibit cell growth by 50% of untreated controls. IC50 values are mean for ≥2 independent experiments. WT:NTR ratio-interexperimental ratio of IC50 means from WT cells versus NTR-expressing cell lines.
# (§3) Isolated NTR gene sequences were subject to PCR and introduced in the bicistronic plasmid F579 via Gateway cloning (Invitrogen) as described by Prosser et al. (2010, Biochem Pharmacol, 79, 678-687). Stably transfected cell lines were created by transfection of the relevant plasmid using FuGENE 6 Transfection Reagent (Roche). Transfected cell populations were maintained by passage in puromycin
# (§4) Cells were passaged in alpha-Minimal Essential Media, (αMEM; Gibco) supplemented with 5% FBS, (GIBCO NZ) without antibiotics. Cell were passaged for <3 months from frozen stocks and confirmed Mycoplasma free (PCR-ELISA; Roche Diagnostics). Cells were aliquoted into the 96-well plate (100 μL/well) and cells were left to attach (≥4 hrs). […] Plates were read on an ELx 808 Absorbance Microplate Reader (Bio-Tek Instruments). Absorbance was measured at 490 nm and 450 nm (final absorbance 490-450). […]
# [3] = system: HCT116 cells expressing E. coli NfsB; experiment: Monolayer antiproliferative (IC50) assay, NTR-expressing HCT116; settings: low cell density proliferation assay
# Experimental: as §1, §2, §3, §4
# [4] = system: HCT116-WT (parental) 'target' cells; experiment: MCL (multicellular layer) bystander experiment, target cells
# Excerpt: FIG. 22 illustrates NfsA-dependent activation of TH-302 in an MCL bystander experiment. It includes a representative bystander efficiency graph. TH-302 dose-response curves for hyperoxic (95% O2) multicellular layers (MCLs) of HCT116-WT (parental) ‘target’ cells in the absence (T) and presence (Tc) of nitroreductase NfsA-expressing HCT116 ‘activator’ cells (A). MCLs are composed of ‘targets only’ (T) or as intimate mixtures of 29% (±4%) NfsA activators (A) and 71% targets (Tc). Displacement of the Target cell survival curve to the left (T to Tc) is indicative of the presence of a cytotoxic metabolite(s) able to diffusible out of the sensitive activator (A) cell population. The prodrug concentrations for 10% survival (C10) of target cells (wild-type cells) grown without activators (T), targets in co-culture (TC) and activators (nfsA-expressing cells) in co-culture (AC) were determined by interpolation. BEE-Bystander effect efficiency calculates the drugs bystander effect: ((Log C10T−Log C10TC)/(Log C10T−Log C10AC)). The calculated bystander effect efficiency is 43.4%.
# Bystander effects can be quantified according to methods described in Wilson et al, 2002, Cancer Res. 62:1425-1432, by employing a 3D multicellular layer (MCL) composed of a minority (1%) of NTR-expressing ‘activator’ cells, mixed with a majority (99%) of parental (wild-type) ‘target’ cells. The prodrug concentrations for 10% survival (C10) of target cells (wild-type cells) grown without activators (T), and targets in co-culture (TC) and activators (NTR-expressing cells) in co-culture (AC) can be determined. The bystander effect of a test prodrug is measured by the bystander effect efficiency which can be calculated using the algorithm ((Log C10T−Log C10TC)/(Log C10T−Log C10AC)). […]
# Millicell-CM membrane inserts (Millipore) were coated in calf-skin collagen type III (Sigma-Aldrich) to facilitate cell attachment. […] Surviving fractions for each population was calculated as the plating efficiency for drug-treated MCLs/untreated controls. […]
smiles,measurement,setting,value
"O=C(Cn1ccnc1[N+](=O)[O-])NCCO [Etanidazole, N-(2-hydroxyethyl)-2-(2-nitro-1H-imidazol-1-yl)acetamide]",bystander property (in words),[1],zero bystander property
same,estimated bystander effect efficiency (BEE),[1],0%
"COCC(O)Cn1ccnc1[N+](=O)[O-] (stereo not drawn) [Misonidazole, 1-methoxy-3-(2-nitro-1H-imidazol-1-yl)propan-2-ol]",bystander property (in words),[1],zero bystander property
same,estimated bystander effect efficiency (BEE),[1],0%
"O=C1CN(/N=C/c2ccc([N+](=O)[O-])o2)C(=O)N1 [Nitrofurantoin, (E)-1-(((5-nitrofuran-2-yl)methylene)amino)imidazolidine-2,4-dione]",bystander property (in words),[1],zero bystander property
same,calculated bystander effect efficiency (BEE),[1],0%
"CS(=O)(=O)OCCN(CCBr)c1c(C(=O)NCCO)cc([N+](=O)[O-])cc1[N+](=O)[O-] [PR-104A, 2-((2-bromoethyl)(2-((2-hydroxyethyl)carbamoyl)-4,6-dinitrophenyl)amino)ethyl methanesulfonate]",bystander property (in words),[1],marked bystander property
same,estimated bystander effect efficiency (BEE),[1],89%
same,prodrug activation (in words),[2],significant activation
same,prodrug activation (in words),[3],significant activation
O=[N+]([O-])c1nccn1CC(O)CNCCBr (stereo not drawn) [RB6145],bystander property (in words),[1],lack any measurable bystander effect
"O=[N+]([O-])c1nccn1CC(O)CN1CC1 (stereo not drawn) [RSU-1069, 1-(aziridin-1-yl)-3-(2-nitro-1H-imidazol-1-yl)propan-2-ol]",bystander property (in words),[1],lack any measurable bystander effect
"CN(CCO)C(=O)c1cc([N+](=O)[O-])cc([N+](=O)[O-])c1N(CCBr)CCBr [SN31609, 2-(bis(2-bromoethyl)amino)-N-(2-hydroxyethyl)-N-methyl-3,5-dinitrobenzamide]",prodrug activation (in words),[2],significant activation
same,prodrug activation (in words),[3],significant activation
"Cn1c(COP(=O)(NCCBr)NCCBr)cnc1[N+](=O)[O-] [TH-302, N,N′-bis(2-bromoethyl)-(1-methyl-2-nitro-1H-imidazol-5-yl)methyl phosphorodiamidic acid ester]",calculated bystander effect efficiency (BEE),[1],43.4% and 43%
same,sterilisation of the nfsA-expressing cells in the MCL model,[1]; incubation with 90 nM TH-302,Greater than 90%
same,"fold less sensitive, NfsA negative cells versus nfsA-expressing cells",[4]; MCL model,210 fold
same,C10 (concentration for 10% survival) of NfsA negative cells in co-culture,"[4]; MCL, targets in co-culture with activators",1.86 µM
same,C10 (concentration for 10% survival) of NfsA negative cells,"[4]; MCL, targets without activators",18.9 µM
"CCS(=O)(=O)CCn1c([N+](=O)[O-])cnc1C [Tinidazole, 1-(2-(ethylsulfonyl)ethyl)-2-methyl-5-nitro-1H-imidazole]",bystander property (in words),[1],lack any measurable bystander effect; also recorded: zero bystander property
same,estimated bystander effect efficiency (BEE),[1],0%
